# Earlier results in patent US7655374B2, “Fixing liquid, toner fixing method and apparatus, and image forming method and apparatus” (Ricoh Company, Ltd., priority 2005, dated 2010).
# Conditions: acute oral toxicity; species not given
row,Compound,LD50 [mg/kg]
1,CCCCOC(=O)CCCCCCCCC(=O)OCCCC [dibutyl sebacate],14900
2,diethoxyethyl sebacate,> 5000
3,CCCCCCCCCCCC [n-dodecane],> 5000
4,CC(C)COC(=O)CCCCC(=O)OCC(C)C [diisobutyl adipate],12300
5,CCCCCCCCCCCC(=O)OCC [ethyl laurate],3000
